Earlier results as cited in patent US20030083469A1, “Allosteric control of nuclear hormone receptors” (The Salk Institute for Biological Studies, priority 1995, published 2003).

Legend:
RAR = details: Allegretto et al., 1993, Allenby et al.; cited from earlier work
RXR = details: Allegretto et al., 1993, Allenby et al.; cited from earlier work

For `CC1=C(/C=C/C(C)=C\C=C\C(C)=C\C(=O)O)C(C)(C)CCC1` [9-cis RA, 9-cis retinoic acid], the binding affinity (RAR) is given as “high affinity” and the binding affinity (RXR) is given as “high affinity”.
